Patent publication US8361487B1, “Ant controllers and method for application thereof” (BASF Aktiengesellschaft, priority 1999, dated 2013)

Tested on: Coptotermes formosanus Shiraki
Test: Test Example 1: termite-killing test on treated filter paper
Format: in vivo
Settings: mortality class; 1 ml of a 500 ppm solution on filter paper, seven days after inoculation, triplicate group of 10 insects
Experimental: A filter paper was spread in a glass dish having a diameter of 9 cm, onto which was dropped 1 ml of a 500 ppm solution of the ant controller of the present invention. Then, the filter paper was inoculated with Coptotermes formosanus Shiraki. Seven days after the inoculation, percentage of dead insects was investigated, from which mortality was calculated. The test was carried out with triplicate group of 10 insects.

Structure (SMILES) | Termite-killing effect
N#Cc1ccc(CC(NNC(=O)Nc2ccc(SC(F)(F)F)cc2)c2cccc(C(F)(F)F)c2)cc1 (stereo not drawn) [Compound 97] | A (100)
N#Cc1ccc(CC(=NNC(=O)Nc2ccc(OC(F)(F)F)cc2)c2cccc(F)c2)cc1 [Compound 35] | A (100)
N#Cc1ccc(CC(NNC(=O)Nc2ccc(SC(F)(F)F)cc2)c2cccc(F)c2)cc1 (stereo not drawn) [Compound 115] | A (100)
O=C(NNC(Cc1ccc([N+](=O)[O-])cc1)c1ccccc1)Nc1ccc(OC(F)(F)F)cc1 (racemic) [Compound 88] | A (100)
N#Cc1ccc(CC(=NNC(=O)Nc2ccc([S+]([O-])C(F)(F)F)cc2)c2cccc(Cl)c2)cc1 (stereo not drawn) [Compound 22] | B (99-90)
N#Cc1ccc(CC(NNC(=O)Nc2ccc(S(=O)(=O)C(F)(F)F)cc2)c2cccc(C(F)(F)F)c2)cc1 (stereo not drawn) [Compound 120] | A (100)
N#Cc1ccc(CC(NNC(=O)Nc2ccc(OC(F)(F)F)cc2)c2cccc(C(F)(F)F)c2)cc1 (single isomer, unassigned) [Compound 118] | D (79-50)
O=C(NNC(Cc1ccc(Cl)cc1)c1cccc(F)c1)Nc1ccc(OC(F)(F)F)cc1 (racemic) [Compound 89] | B (99-90)
CC(C(=NNC(=O)Nc1ccc(OC(F)(F)F)cc1)c1ccccc1)c1ccccc1 (stereo not drawn) [Compound 51] | A (100)
O=C(NN=C(Cc1ccc(Cl)cc1)c1cccc(F)c1)Nc1ccc(OC(F)(F)F)cc1 [Compound 33] | C (89-80)
O=C(NN=C(Cc1ccccc1)c1cccc(F)c1)Nc1ccc(OC(F)(F)F)cc1 [Compound 32] | A (100)
N#Cc1ccc(CN(NCC(=O)Nc2ccc(OC(F)(F)F)cc2)c2ccccc2)cc1 [Compound 146] | D (79-50)
O=C(CNN(Cc1ccc(Cl)cc1)c1cccc(Cl)c1)Nc1ccc(Cl)cc1 [Compound 147] | A (100)
O=C(CNN(Cc1ccc([N+](=O)[O-])cc1)c1cccc(Cl)c1)Nc1ccc(Cl)cc1 [Compound 149] | A (100)
CCNC(=O)N(NC(=O)Nc1ccc(OC(F)(F)F)cc1)C(Cc1ccc(C#N)cc1)c1cccc(Cl)c1 (stereo not drawn) [Compound 103] | A (100)
N#Cc1ccc(CC(NNC(=O)Nc2ccc(OC(F)(F)F)cc2)c2cccc(Br)c2)cc1 (stereo not drawn) [Compound 95] | A (100)
N#Cc1ccc(CC(=NNC(=O)Nc2ccc(SC(F)(F)F)cc2)c2cccc(Cl)c2)cc1 [Compound 21] | A (100)
N#Cc1ccc(CC(=NNC(=O)Nc2ccc([S+]([O-])C(F)(F)F)cc2)c2cccc(F)c2)cc1 (stereo not drawn) [Compound 77] | A (100)
O=C(C=NN(Cc1ccc(Cl)cc1)c1ccccc1)Nc1ccc(OC(F)(F)F)cc1 [Compound 123] | A (100)
N#Cc1ccc(CC(NNC(=S)Nc2ccc(OC(F)(F)F)cc2)c2cccc(C(F)(F)F)c2)cc1 (stereo not drawn) [Compound 100] | A (100)
O=C(NNC(Cc1ccccc1[N+](=O)[O-])c1ccccc1)Nc1ccc(OC(F)(F)F)cc1 (stereo not drawn) [Compound 113] | A (100)
CC(C(=NNC(=O)Nc1ccc(OC(F)(F)F)cc1)c1ccccc1)c1ccccc1 (stereo not drawn) [Compound 52] | A (100)
CC(C(=NNC(=O)Nc1ccc(Cl)cc1)c1ccccc1)c1ccccc1 (stereo not drawn) [Compound 48] | A (100)

Structure (SMILES) | Termite-killing effect
CC(C)OC(C(=NNC(=O)Nc1ccc(Cl)cc1)c1ccccc1)c1ccccc1 (racemic) [Compound 68] | A (100)
COC(C(=NNC(=O)Nc1ccc(Cl)cc1)c1ccccc1)c1ccccc1 (racemic) [Compound 66] | A (100)
O=C(C=NN(Cc1ccc(Cl)cc1)c1cccc(Cl)c1)Nc1ccc(Cl)cc1 [Compound 126] | A (100)
N#Cc1ccc(CN(NCC(=O)Nc2ccc(OC(F)(F)F)cc2)c2cccc(Cl)c2)cc1 [Compound 152] | B (99-90)
O=C(NN=C(c1ccccc1)C(OC(=O)c1ccccc1)c1ccccc1)Nc1ccc(OC(F)(F)F)cc1 (racemic) [Compound 73] | A (100)
O=C(NN=C(Cc1ccc(Cl)cc1)c1cccc(Cl)c1)Nc1ccc(OC(F)(F)F)cc1 [Compound 16] | C (89-80)
N#Cc1ccccc1CN(N=CC(=O)Nc1ccc(OC(F)(F)F)cc1)c1cccc(Cl)c1 [Compound 142] | C (89-80)
O=C(CNN(Cc1ccc(Cl)cc1)c1cccc(Cl)c1)Nc1ccc(OC(F)(F)F)cc1 [Compound 148] | A (100)
O=C(CNN(Cc1ccccc1)c1ccccc1)Nc1ccc(OC(F)(F)F)cc1 [Compound 143] | C (89-80)
O=C(NN=C(Cc1ccc(Cl)cc1)c1ccccc1)Nc1ccc(Cl)cc1 [Compound 3] | A (100)
O=C(NN=C(Cc1ccccc1)c1cccc(C(F)(F)F)c1)Nc1ccc(OC(F)(F)F)cc1 [Compound 43] | A (100)
N#Cc1ccc(CC(=NNC(=O)Nc2ccc([S+]([O-])C(F)(F)F)cc2)c2cccc(Cl)c2)cc1 (stereo not drawn) [Compound 79] | B (99-90)
N#Cc1ccc(CN(N=CC(=O)Nc2ccc(SC(F)(F)F)cc2)c2cccc(Cl)c2)cc1 [Compound 132] | A (100)
CC(C(=NNC(=O)Nc1ccc(Cl)cc1)c1ccccc1)c1ccccc1 (racemic) [Compound 64] | A (100)
O=[N+]([O-])c1ccc(CC(=NNC(=S)Nc2ccc(Cl)cc2)c2ccccc2)cc1 [Compound 11] | A (100)
N#Cc1ccc(CC(NNC(=O)Nc2ccc([S+]([O-])C(F)(F)F)cc2)c2cccc(C(F)(F)F)c2)cc1 (stereo not drawn) [Compound 119] | A (100)
O=C(NN=C(Cc1ccc([N+](=O)[O-])cc1)c1ccccc1)Nc1ccc(OC(F)(F)F)cc1 [Compound 12] | A (100)
CC(=NN(Cc1ccc(C#N)cc1)c1cccc(Cl)c1)C(=O)Nc1ccc(OC(F)(F)F)cc1 [Compound 140] | A (100)
O=C(C=NN(Cc1ccc(Cl)cc1)c1cccc(Cl)c1)Nc1ccc(OC(F)(F)F)cc1 [Compound 127] | A (100)
N#Cc1ccc(CC(NNC(=O)Nc2ccc([S+]([O-])C(F)(F)F)cc2)c2cccc(F)c2)cc1 (stereo not drawn) [Compound 116] | B (99-90)
CC(C)COC(C(=NNC(=O)Nc1ccc(Cl)cc1)c1ccccc1)c1ccccc1 (racemic) [Compound 70] | A (100)
N#Cc1ccc(CN(NCC(=O)Nc2ccc(Cl)cc2)c2cccc(Cl)c2)cc1 [Compound 151] | C (89-80)
Cc1cccc(C(Cc2ccc(C#N)cc2)=NNC(=O)Nc2ccc(OC(F)(F)F)cc2)c1 [Compound 41] | A (100)

Structure (SMILES) | Termite-killing effect
O=C(NN=C(Cc1ccccc1)c1ccccc1)Nc1ccc(Cl)cc1 [Compound 1] | A (100)
CN(C(=O)NN=C(Cc1ccccc1)c1ccccc1)c1ccc(OC(F)(F)F)cc1 [Compound 47] | A (100)
Cc1cccc(N(Cc2ccc(C#N)cc2)N=CC(=O)Nc2ccc(OC(F)(F)F)cc2)c1 [Compound 137] | A (100)
O=C(NN=C(Cc1ccc([N+](=O)[O-])cc1)c1ccccc1)Nc1ccc(SC(F)(F)F)cc1 [Compound 14] | A (100)
CN(C(=O)NN=C(Cc1ccccc1)c1ccccc1)c1ccc(Cl)cc1 [Compound 46] | A (100)
CC(C(=NNC(=O)Nc1ccc(OC(F)(F)F)cc1)c1cccc(Cl)c1)c1ccc(C#N)cc1 (stereo not drawn) [Compound 56] | A (100)
N#Cc1ccc(CC(=NNC(=O)Nc2ccc([S+]([O-])C(F)(F)F)cc2)c2cccc(Br)c2)cc1 (stereo not drawn) [Compound 29] | C (89-80)
CC(C(=NNC(=O)Nc1ccc(Cl)cc1)c1cccc(Cl)c1)c1ccc(C#N)cc1 (stereo not drawn) [Compound 55] | A (100)
N#Cc1ccc(CC(=NNC(=O)Nc2ccc(SC(F)(F)F)cc2)c2cccc(Br)c2)cc1 [Compound 28] | C (89-80)
N#Cc1ccc(CN(N=CC(=O)Nc2ccc(Cl)cc2)c2cccc(F)c2)cc1 [Compound 134] | A (100)
O=C(NN=C(c1ccccc1)C(O)c1ccc(Cl)cc1)Nc1ccc(Cl)cc1 (stereo not drawn) [Compound 59] | C (89-80)
N#Cc1ccc(CN(N=CC(=O)Nc2ccc(OC(F)(F)F)cc2)c2cccc(C(F)(F)F)c2)cc1 [Compound 139] | A (100)
O=C(NN=C(c1ccccc1)C(O)c1ccccc1)Nc1ccc(OC(F)(F)F)cc1 (stereo not drawn) [Compound 58] | A (100)
N#Cc1ccc(CN(N=CC(=O)Nc2ccc([S+]([O-])C(F)(F)F)cc2)c2cccc(Cl)c2)cc1 (stereo not drawn) [Compound 133] | A (100)
N#Cc1ccc(CC(NNC(=O)Nc2ccc(OC(F)(F)F)cc2)c2cccc(F)c2)cc1 (stereo not drawn) [Compound 114] | B (99-90)
N#Cc1ccc(CN(NCC(=O)Nc2ccc(Cl)cc2)c2ccccc2)cc1 [Compound 145] | A (100)
Cc1cccc(N(Cc2ccc(C#N)cc2)NCC(=O)Nc2ccc(Cl)cc2)c1 [Compound 155] | A (100)
O=C(NNC(Cc1ccccc1)c1ccccc1)Nc1ccc(Cl)cc1 (racemic) [Compound 84] | A (100)
N#Cc1ccc(CC(=NNC(=O)Nc2ccc(Cl)cc2)c2cccc(Br)c2)cc1 [Compound 26] | A (100)
N#Cc1ccc(CC(=NNC(=O)Nc2ccc(Cl)cc2)c2ccccc2)cc1 [Compound 5] | A (100)
N#Cc1cccc(CC(NNC(=O)Nc2ccc(OC(F)(F)F)cc2)c2ccccc2)c1 (stereo not drawn) [Compound 112] | A (100)
O=C(NN=C(c1ccccc1)C(O)c1ccc(Cl)cc1)Nc1ccc(OC(F)(F)F)cc1 (stereo not drawn) [Compound 60] | C (89-80)
N#Cc1ccc(CC(c2cccc(Cl)c2)N(NC(=O)Nc2ccc(OC(F)(F)F)cc2)C(=O)c2ccccc2)cc1 (stereo not drawn) [Compound 102] | A (100)
